From ChEMBL document CHEMBL4610064, “DNA-Encoded Library Screening as Core Platform Technology in Drug Discovery: Its Synthetic Method Development and Applications in DEL Synthesis” (J Med Chem, 2020)
Values after ≈ are worked out from the molar mass of the structure shown.

How the values were obtained:
[1] = Aqueous solubility of the compound; type: physicochemical; conditions: water
[2] = target: T1, Neuromedin-K receptor (Homo sapiens) (UniProt P29371); test: Antagonist activity at NK3 (unknown origin)
T1 sequence (whole entry): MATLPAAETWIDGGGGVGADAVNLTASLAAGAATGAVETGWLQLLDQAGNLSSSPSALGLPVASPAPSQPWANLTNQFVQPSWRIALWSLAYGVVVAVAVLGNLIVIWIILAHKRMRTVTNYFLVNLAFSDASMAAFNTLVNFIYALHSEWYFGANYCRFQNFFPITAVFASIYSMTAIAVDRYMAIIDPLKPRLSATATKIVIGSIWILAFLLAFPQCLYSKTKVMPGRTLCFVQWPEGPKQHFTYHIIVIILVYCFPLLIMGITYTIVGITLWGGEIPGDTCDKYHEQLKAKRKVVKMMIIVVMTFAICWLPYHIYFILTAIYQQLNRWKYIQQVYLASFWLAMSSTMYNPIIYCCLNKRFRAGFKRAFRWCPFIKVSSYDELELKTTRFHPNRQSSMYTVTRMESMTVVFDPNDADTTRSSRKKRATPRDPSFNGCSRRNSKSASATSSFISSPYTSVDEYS

[3] = target: T2, Substance-K receptor (Homo sapiens) (UniProt P21452); test: Antagonist activity at NK2 (unknown origin)
T2 sequence (whole entry): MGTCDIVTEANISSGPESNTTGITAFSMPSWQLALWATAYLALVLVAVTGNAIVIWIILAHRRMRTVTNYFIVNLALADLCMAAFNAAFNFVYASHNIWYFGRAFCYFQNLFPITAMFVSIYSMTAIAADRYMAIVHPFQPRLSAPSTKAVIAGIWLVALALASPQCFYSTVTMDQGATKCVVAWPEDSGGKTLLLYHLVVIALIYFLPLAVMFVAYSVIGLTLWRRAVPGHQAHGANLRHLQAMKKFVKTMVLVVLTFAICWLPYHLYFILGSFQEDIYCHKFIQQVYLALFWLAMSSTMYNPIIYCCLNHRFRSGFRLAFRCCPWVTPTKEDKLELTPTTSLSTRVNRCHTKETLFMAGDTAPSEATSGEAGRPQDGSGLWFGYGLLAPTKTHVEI

[4] = target: Substance-P receptor (Homo sapiens) (UniProt P25103); test: Antagonist activity at NK1 (unknown origin)
Substance-P receptor (Homo sapiens), sequence (P25103 whole entry): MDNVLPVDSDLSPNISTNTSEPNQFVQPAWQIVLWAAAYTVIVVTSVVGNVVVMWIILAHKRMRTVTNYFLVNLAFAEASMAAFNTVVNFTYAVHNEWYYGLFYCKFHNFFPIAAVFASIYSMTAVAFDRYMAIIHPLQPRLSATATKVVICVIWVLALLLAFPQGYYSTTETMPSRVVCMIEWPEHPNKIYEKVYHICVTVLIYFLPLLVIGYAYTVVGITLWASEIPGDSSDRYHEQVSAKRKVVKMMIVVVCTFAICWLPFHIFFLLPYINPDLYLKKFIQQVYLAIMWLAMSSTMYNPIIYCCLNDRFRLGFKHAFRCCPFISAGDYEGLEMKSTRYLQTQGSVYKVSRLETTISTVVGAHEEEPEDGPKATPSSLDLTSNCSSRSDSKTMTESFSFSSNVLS

Row | fKi [2] | fKi [3] | fKi [4] | SMILES | solubility [1]
1 |  |  |  | O=C(CN1C(=O)C2(CCN(C(=O)c3ccc4[nH]ncc4n3)CC2)c2c(Br)cccc21)NCC(F)(F)F | 103 µg/mL (≈ 182 µM)
2 |  |  |  | CNC(=O)CN1CN(c2ccccc2)C2(CCN(C(=O)c3ccc4[nH]ncc4c3)CC2)C1=O | 1.4 µg/mL (≈ 3.14 µM)
3 | 1.2 nM | > 1000 nM | > 1000 nM | Cn1c(-c2c[nH]c3cc(C#N)ccc23)nc2cc(C(=O)N3CCOC(c4ccccc4)C3CO)ccc21 (stereo not drawn) | 
4 | 1.2 nM | > 1000 nM | > 1000 nM | CCn1c(-c2ccccc2-c2ccc(C)cc2C)nc2cc(C(=O)NC)ccc21 | 
